Here are results for eight molecules from patent US10449221B2, “Differentiation of stem cells into thyroid tissue” (TRUSTEES OF BOSTON UNIVERSITY, priority 2015, dated 2019).

One experiment relates to Xenopus embryos. As to the kind of experiment: Xenopus whole embryo culture in pathway antagonists, in-situ hybridization for thyroid markers. It is filed as in vivo. Particulars: for nkx2-1 induction in the developing thyroid primordium: inhibitor from stage NF13 through NF35, XAV939 50 μM, BMS493 10 μM. As for the experimental part: Xenopus embryos were generated by in vitro fertilization and assayed by in situ hybridization or confocal immunostaining as previously described (Rankin et al., 2015). Small molecule inhibitors were dissolved in DMSO according to manufacturer's instructions and added to the embryo culture saline at the following working concentrations: 10 μM SU5402 (Tocris Bioscience), 40 μM DMH-1 (Sigma), 50 μM XAV939 (Sigma) and 10 μM BMS493 (Tocris Bioscience). Foregut explants were dissected from stage NF15 and treated with Dispase (BD Pharmingen) for 15 minutes and then the mesoderm was manually removed. Foregut endoderm was then cultured in 0.5× Modified Barth's Saline with 0.1% BSA with or without 500 ng/ml rhFGF2 and 50 ng/ml rhBMP4 (R&D systems).

The test system of experiment [1] is Nkx2-1GFP+; Pax8tdTomato trace+ iPSC-derived cells. As to the kind of experiment: Lineage specification of bifluorescent reporter iPSC line by day 14. Particulars: data not shown; for efficiency of lineage specification of Nkx2-1GFP+; Pax8tdTomato trace+ cells: Wnt inhibitor added to induction media; for efficiency of lineage specification, percent yield of GFP+/tdTomato+ cells: factor withdrawn or removed from the Nkx2-1 induction media. It is filed as cell-based, mouse.

Experiment [2] deals with ESC-derived definitive endoderm. As to the kind of experiment: Nkx2-1+ endoderm induction from ESC-derived endoderm, specification media day 6-14, flow cytometry on day 14. Particulars: for Nkx2-1+ cell specification by day 14: factor(s) present in induction media day 6-14; for Nkx2-1+ endodermal induction efficiency: sequential withdrawal of each individual factor from the WFKBE+2 cocktail. It counts as cell-based, mouse. As for the experimental part:
Definitive endoderm induction was performed in complete serum-free differentiation medium (cSFDM) consisting of 75% IMDM (Invitrogen 12440) and 25% Ham's Modified F12 medium (Cellgro 10-080-CV) supplemented with N2 and B27+RA (Invitrogen 17502-048 and 17504-44), 0.05% BSA (Invitrogen 15260-037), […] L-glutamine (Invitrogen 25030-081), 0.05 mg/ml ascorbic acid (Sigma A4544) and 4.5×10^-4M MTG (Sigma M6145) as previously described (Gouon-Evans et al., 2006, Longmire et al., 2012). Undifferentiated ESCs were trypsinized to form a single cell suspension and plated onto Petri dishes (500,000 cells/10 cm dish) resulting in the formation of embryoid bodies (EBs) over 60 hours. EBs were dissociated by trypsinization (0.05%, 1 min, 37° C.) and plated as single cells into cSFDM supplemented with 50 ng/ml Activin A (R&D systems 338-AC) for an additional 60 hours. For Anteriorization of endoderm, on day 5 (120 total hours of differentiation) EBs were plated onto p100 Petri dishes in Nog/SB media: cSFDM supplemented with 100 ng/ml mNoggin (R&D 1967-NG) and 10 μM SB431542 (Sigma S4317) as previously described (Longmire et al., 2012). For Nkx2-1+ endoderm induction, EBs were plated on gelatin coated 6 well plates at the equivalent density of 200,000 cells/well in Specification media: cSFDM supplemented as stated in the text with 100 ng/ml mWnt3a (R&D 1324-WN), 10 ng/ml hFGF10 (R&D 345-FG), 10 ng/ml mKGF (R&D 5028-KG), 10 ng/ml mBMP4 (R&D 5020-BP), 20 ng/ml hEGF (R&D 236-EG), 250 ng/ml mFGF2 (R&D 3139-FB) and 100 ng/ml Heparin Sodium Salt (Sigma […]2-1mCherry+ cells, or the populations otherwise indicated in the text were sorted using MoFlo or […] II SORP high speed cell sorters and replated onto gelatin-coated 24 well plates on day 12-14 at a density of 5×10^4 cells/well. Where indicated in the text, small molecule inhibitors were dissolved in DMSO according to manufacturer's instructions and added to the culture media from day 6 to 14 at the following working concentrations: Dorsomorphin 4 μM (Sigma P5499), PD98059 20 μM, SB203580 10 μM (both from Cell Signaling Technology, PHZ1164 and 5633), and LY294002 […] (Promega V1201).

The test system of a further experiment is Nkx2-1mCherry ESC line. As to the kind of experiment: Maturation of ESC-derived Nkx2-1mCherry+ thyroid progenitors, marker mRNA by RT-PCR. It counts as cell-based, mouse. Conditions: for thyroid specific gene expression: media used from D22 to D26, RT-PCR at Day 26. As for the experimental part: Further differentiation and maturation of Nkx2-1+ sorted cells was performed in either 2D or 3D culture conditions, as indicated in the text. For 2D differentiation cells sorted on day 14 were replated and grown for 8 more days in cSFDM supplemented with 250 ng/ml mFGF2, 100 ng/ml hFGF10 and 100 ng/ml Heparin Sodium Salt. […] During the first 48 hours after sorting media was supplemented with 10 μM Y27632 (Sigma Y0503). From day 20-26 5 μg/ml ITS was included in the media. […] For cultures longer than 30 days, cells were splitted using Dispase (Corning 354235) on Day 30 and re-embedded in pure Matrigel, and fed with thyroid maturation media until the harvest day indicated in the text. RNA (for FIGS. 1 to 3 and 11c) was extracted from cells using the RNeasy kit (Qiagen 74104) following the manufacturer's protocol. 150 ng of RNA was reverse transcribed to cDNA using TaqMan reverse transcription reagents (Applied Biosystems N8080234) and the manufacturer's protocol. cDNA template was diluted 1:4, and 2 μl of the diluted template was used per 25 μl real time PCR reaction using Taqman Fast Universal PCR Master Mix (Applied Biosystems 4352042) and run in technical triplicates up to 40 cycles of PCR on the Applied Biosystems StepOne machine. Alternatively, 1 μl of the diluted template was used per 13 μl real time reaction on the Applied Biosystems 7900HT Real Time PCR System. Relative gene expression, normalized to 18S control, was calculated as fold change in 18S-normalized gene expression, over baseline, using the 2^(-ΔΔCT) method. Baseline, defined as fold change=1, was set to undifferentiated embryonic stem cell levels, or if undetected, a cycle number of 40 was assigned to allow fold change calculations. For FIGS. 5 and 11 (except FIG. 11c) total RNA was extracted from cultured cells using Stat-60 reagent (Tel-Test Cs-502). Then, 150 ng of total RNA was reverse transcribed using a SuperScript Vilo cDNA synthesis kit from Invitrogen. qPCR was performed in duplicate using the 800HT thermal cycler (Applied Biosystems). Relative mRNA levels were calculated using the standard curve method and normalized to peptidylprolyl isomerase A (cyclophilin). Cyclophilin expression was quantified with custom-made primers and probe (Forward primer: [NT]. ID. NO: 1), Reverse primer: [NT]. ID. NO: 2; Probe: [NT]. ID. NO: 3).

As to `Cc1c[nH]c(/C=C2\C(=O)Nc3ccccc32)c1CCC(=O)O` [SU5402], the “induction of thyroid markers foxe1, nkx2-1, pax2 and hhex” value with Xenopus embryos (inhibitor from stage NF13 until NF20, DMH-1 40 μM, SU5402 10 μM) is “abrogated induction of all four thyroid markers in the vast majority of embryos”.

On to `Oc1nc(-c2ccc(C(F)(F)F)cc2)nc2c1CSCC2` [XAV939, reference compound], for which the “nkx2-1 induction in the developing thyroid primordium” value in the experiment on Xenopus embryos is recorded as “normal nkx2-1 induction”. In addition, the “efficiency of lineage specification of Nkx2-1GFP+; Pax8tdTomato trace+ cells” value in experiment [1] is “no significant impact”.

As to “fibroblast growth factor 2 (basic) [FGF2]”, the “efficiency of lineage specification, percent yield of GFP+/tdTomato+ cells” value in experiment [1] was “significant decrease in the percent yield of GFP+/tdTomato+ cells”. In addition, in experiment [2], the “Nkx2-1+ cell specification by day 14” value is listed as “induced low numbers of Nkx2-1+ cells with little thyroid competence” and the “Nkx2-1+ endodermal induction efficiency” value is on record as “indispensible for efficient Nkx2-1+ endodermal induction”.

Take `Nc1ncnc2c1ncn2[C@@H]1O[C@@H]2COP(=O)(O)O[C@H]2[C@H]1O` [cAMP, cyclic adenosine monophosphate, reference compound]: the “thyroid specific gene expression” value in the experiment with Nkx2-1mCherry ESC line was “increase thyroid specific gene expression”. Also, the maturation marker expression entry with Nkx2-1mCherry ESC line (withdrawal of the factor from the DCI+K cocktail, day 22-26) was “adversely affected maturation”.

On to `CC1(C)CC=C(C#Cc2ccccc2)c2cc(/C=C/c3ccc(C(=O)O)cc3)ccc21` [BMS493], for which, in the experiment on Xenopus embryos, the “nkx2-1 induction in the developing thyroid primordium” value is “normal nkx2-1 induction”.

On to thyroid stimulating hormone [TSH], for which, in the experiment on Nkx2-1mCherry ESC line (TSH added after lineage specification, day 14-22), the “Nis, Tsh-r, and Tpo expression” value was “significant augmentation of Nis, Tsh-r, and Tpo expression”. For the same molecule, the “expression of lineage markers Nkx2-1 and Pax8” value in the experiment with Nkx2-1mCherry ESC line (TSH added day 14-22, data not shown) is listed as “no significant change”. Also, the “efficiency of thyroid lineage specification” value in the experiment on Nkx2-1mCherry ESC line (TSH added prior to lineage specification, day 9-12, data not shown) is on record as “no detectable effect”. For the same molecule, the “Nis and Tsh-r expression” value in the experiment with Nkx2-1mCherry ESC line (additional 3 days of culture maturation in the presence of TSH (Day 25 vs Day 22)) is “further augmentation of Nis and Tsh-r expression”. For the same molecule, the “thyroid specific gene expression” value in the experiment with Nkx2-1mCherry ESC line was “increase thyroid specific gene expression”. The “thyroid maturation marker Nis” value with Nkx2-1mCherry ESC line (substitution of TSH for cAMP in the DCI+K media, day 22-26) is “most robust augmentation of the thyroid maturation marker, Nis”.

B1: bone morphogenetic protein 4 (protein, UniProt P12644 293-408, looked up)
Bone morphogenetic protein 4: SPKHHSQRARKKNKNCRRHSLYVDFSDVGWNDWIVAPPGYQAFYCHGDCPFPLADHLNSTNHAIVQTLVNSVNSSIPKACCVPTELSAISMLYLDEYDKVVLKNYQEMVVEGCGCR
notes: growth factor in specification media
As to B1, in experiment [1], the “efficiency of lineage specification, percent yield of GFP+/tdTomato+ cells” value is given as “significant decrease in the percent yield of GFP+/tdTomato+ cells”. In experiment [2], the “Nkx2-1+ cell specification by day 14” value is recorded as “induced low numbers of Nkx2-1+ cells with little thyroid competence” and the “Nkx2-1+ endodermal induction efficiency” value is reported as “indispensible for efficient Nkx2-1+ endodermal induction”.

B2: Dkk1: Wnt inhibitor (protein, UniProt O94907 32-266, looked up)
Dickkopf-related protein 1: TLNSVLNSNAIKNLPPPLGGAAGHPGSAVSAAPGILYPGGNKYQTIDNYQPYPCAEDEECGTDEYCASPTRGGDAGVQICLACRKRRKRCMRHAMCCPGNYCKNGICVSSDQNHFRGEIEETITESFGNDHSTLDGYSRRTTLSSKMYHTKGQEGSVCLRSSDCASGLCCARHFWSKICKPVLKEGQVCTKHRRKGSHGLEIFQRCYCGEGLSCRIQKDHHQASNSSRLHTCQRH
Turning to B2, in experiment [1], the “efficiency of lineage specification of Nkx2-1GFP+; Pax8tdTomato trace+ cells” value was “no significant impact”.
